Measurements taken from patent publication US20090221624A1, “4-AMINOQUINOLINE COMPOUNDS FOR TREATING VIRUS-RELATED CONDITIONS” (priority 2005, published 2009).
pEC50: −log10 of the molar value.

Experiments:
[1] = test system: DNG (D2-hRuPac cells); assay: DNG antiviral activity, D2-hRuPac cells, Renilla luciferase; type: cell-based, Dengue fever virus; conditions: Dengue virus, secondary screening
[2] = test system: EBOV minigenome; assay: microbe, parasite or virus in culture; type: cell-based, Ebola virus; conditions: Zaire ebolavirus; for inhibition at 25 µM: 24 h, read-out: EBOV Inh; for pEC50: read-out: EBOV EC50
[3] = test system: SINV (SR19-F-luc cells); assay: SINV antiviral activity, SR19-F-luc cells, Firefly luciferase; type: cell-based; conditions: Sindbis virus; for inhibition at 25 µM: primary screening, 25 μM final concentration, 24 hours, percent inhibition of viral replication, read-out: SINV Inh; for pEC50: secondary screening, SR19-F-luc cells
[4] = test system: WNV (WN-hRuPac cells); assay: WNV antiviral activity, WN-hRuPac cells, Renilla luciferase; type: cell-based, West Nile virus; conditions: for pEC50 / inhibition at 25 µM: West Nile virus; for pEC50: Secondary Data, WNV, read-out: WNV EC50; for inhibition at 25 µM: primary screening, 25 μM final concentration, 24 hours, percent inhibition of viral replication, read-out: WNV Inh; for WNV TI: therapeutic index CC50/EC50, WNV
[5] = test system: RSV minigenome; assay: RSV minigenome-dependent β-galactosidase expression assay (RSV β-Gal); type: cell-based, respiratory syncytial virus; conditions: for pEC50 / inhibition at 25 µM: human respiratory syncytial virus; for pEC50: Secondary Data, RSV, read-out: RSV EC50; for inhibition at 25 µM: primary screening, 25 μM final concentration, 24 hours, percent inhibition of viral replication, read-out: RSV Inh; for RSV TI: therapeutic index CC50/EC50, RSV
[6] = test system: YFV (YF-hRuPac cells); assay: microbe, parasite or virus in culture; type: cell-based, yellow fever virus; conditions: for inhibition at 25 µM / pEC50: Yellow fever virus; for inhibition at 25 µM: 24 h, read-out: YFV Inh; for pEC50: read-out: YFV EC50
[7] = in vitro
[8] = test system: HCV replicon (Clone A cells, Huh7, subgenomic hepatits C virus RNA); assay: HCV Neo screening assay (HCV replicon, NPTII ELISA); type: cell-based, hepatitis C virus; conditions: for inhibition at 25 µM / pEC50: Hepatitis C virus, Huh-7; for inhibition at 25 µM: primary screening, 25 μM final concentration, 24 hours, percent inhibition of viral replication, read-out: HCV Inh; for pEC50: Secondary Data, HCV; for HCV TI: therapeutic index CC50/EC50, HCV

Compound	pEC50 [1]	inhibition at 25 µM [2]	pEC50 [2]	inhibition at 25 µM [3]	pEC50 [3]	pEC50 [4]	inhibition at 25 µM [4]	pEC50 [5]	inhibition at 25 µM [5]	RSV TI [5]	YFV TI [6]	inhibition at 25 µM [6]	pEC50 [6]	CC50 ([7]; DNG CC50)	CC50 ([7]; EBOV CC50)	CC50 ([7]; RSV CC50)	CC50 ([7]; SINV CC50)	CC50 ([7]; WNV CC50)	CC50 ([7]; YFV CC50)	inhibition at 25 µM [8]	other results
Cc1ccc2nc(C)cc(N3CCC(C)CC3)c2c1 [Compound 15]	4.14	49.2%	4.15	72%	5.25	≤ 4.12	55.9%	5.13	72.6%	9.94	1.57	37.5%	4.33	72.9 µM	72.9 µM	72.9 µM	72.9 µM	72.9 µM	72.9 µM	45.1%	WNV TI [4]: 0.97; CC50 ([7]; HCV CC50): 35.7 µM
Cc1ccc2nc3c(c(Nc4ccc(O)cc4)c2c1)CCC3 [Compound 16]	5.03	7.83%	4.52	79.5%	5.82	4.88	66.8%	5.15	88.5%	4.81	1.63	75.9%	4.68	34.1 µM	34.1 µM	34.1 µM	34.1 µM	34.1 µM	34.1 µM	119%	WNV TI [4]: 2.61; CC50 ([7]; HCV CC50): 33.5 µM; pEC50 [8]: 5.05; HCV TI [8]: 3.72
CC(=O)c1cccc(Nc2cc(C)nc3ccccc23)c1 [Compound 17]	≤ 4.12	-42%	4.12	72.1%	5.42	≤ 4.12	40.3%	4.43	50.7%	2.01	1.18	54%	4.20	≥ 75 µM	≥ 75 µM	≥ 75 µM	≥ 75 µM	≥ 75 µM	≥ 75 µM	12.3%	CC50 ([7]; HCV CC50): 30.4 µM
Cc1ccc2nc(C)cc(NCc3ccccc3)c2c1 [Compound 18]	4.50	-29.5%	–	54.4%	4.82	4.67	63.9%	5.25	88.6%	10.12	6.21	61.5%	5.04	56.4 µM	56.4 µM	56.4 µM	56.4 µM	56.4 µM	56.4 µM	36.9%	WNV TI [4]: 2.65
COc1ccc(Nc2cc(C)nc3ccccc23)cc1 [Compound 20]	4.38	21%	4.30	75.5%	5.37	≤ 4.12	38.4%	5.07	61.4%	8.8	2.83	51%	4.58	≥ 75 µM	≥ 75 µM	≥ 75 µM	≥ 75 µM	≥ 75 µM	≥ 75 µM	14.8%	CC50 ([7]; HCV CC50): 64.2 µM
Cc1ccc2nc3c(c(Nc4ccc(N5CCOCC5)cc4)c2c1)CCC3 [Compound 21]	4.69	46.5%	4.32	69.7%	4.92	5.02	62.7%	5.38	99.4%	10.77	7.16	63.1%	5.20	44.8 µM	44.8 µM	44.8 µM	44.8 µM	44.8 µM	44.8 µM	159%	WNV TI [4]: 4.66; CC50 ([7]; HCV CC50): 8.02 µM; pEC50 [8]: 5.09; HCV TI [8]: 0.99
COc1cccc2c(Nc3ccc4c(c3)OCCO4)cc(C)nc12 [Compound 22]	4.45	72%	5.27	-22.7%	4.14	4.65	48.8%	5.52	75.1%	19.08	0.76	29.9%	≤ 4.12	57.2 µM	57.2 µM	57.2 µM	57.2 µM	57.2 µM	57.2 µM	55.1%	WNV TI [4]: 2.56; CC50 ([7]; HCV CC50): 13.7 µM; pEC50 [8]: 4.74; HCV TI [8]: 0.75
Cc1ccc2nc(C)cc(NCc3ccco3)c2c1 [Compound 23]	4.59	-1.14%	4.12	22.8%	≤ 4.12	5.42	70.3%	5.54	92%	19.91	8.94	86.3%	5.19	57.9 µM	57.9 µM	57.9 µM	57.9 µM	57.9 µM	57.9 µM	13.7%	WNV TI [4]: 15.41; CC50 ([7]; HCV CC50): ≥ 75 µM
CCc1ccccc1Nc1cc(C)nc2c(OC)cccc12 [Compound 24]	4.56	35.3%	4.25	64.1%	4.78	4.59	73.9%	5.35	94.7%	12.86	0.77	67.3%	≤ 4.12	57.9 µM	57.9 µM	57.9 µM	57.9 µM	57.9 µM	57.9 µM	43.7%	WNV TI [4]: 2.26
COc1cccc2c(Nc3cccc([N+](=O)[O-])c3)cc(C)nc12 [Compound 25]	5.41	99.4%	4.12	99.8%	5.67	5.50	100%	5.33	99.9%	4.85	6.25	100%	5.44	22.9 µM	22.9 µM	22.9 µM	22.9 µM	22.9 µM	22.9 µM	159%	WNV TI [4]: 7.22; CC50 ([7]; HCV CC50): 12.7 µM; pEC50 [8]: 5.31; HCV TI [8]: 2.62
Cc1ccc2nc3c(c(Nc4cccc(C(F)(F)F)c4)c2c1)CCC3 [Compound 26]	4.32	38.8%	4.12	53.3%	4.73	5.43	62.2%	5.39	99.9%	12.95	8.88	77.2%	5.22	53.1 µM	53.1 µM	53.1 µM	53.1 µM	53.1 µM	53.1 µM	148%	WNV TI [4]: 14.32; CC50 ([7]; HCV CC50): 8.35 µM; pEC50 [8]: 5.12; HCV TI [8]: 1.1
Cc1ccc2nc3c(c(Nc4ccccc4)c2c1)CCC3 [Compound 27]	4.42	-4.87%	4.20	70.6%	5.73	5.56	60%	5.22	92.2%	8.45	4.3	70.2%	4.93	50.7 µM	50.7 µM	50.7 µM	50.7 µM	50.7 µM	50.7 µM	113%	WNV TI [4]: 18.24; CC50 ([7]; HCV CC50): 24.2 µM; pEC50 [8]: 4.85; HCV TI [8]: 1.73
